# Assay results: US7981861B2, “Method of performing angioplasty with a GLP-1 molecule” (Amylin Pharmaceuticals, Inc., priority 2000, dated 2011)
# Entries after “also recorded” stand apart in the source; their conditions may differ.
# Columns and labels:
# Wistar rats = assay: LAD coronary artery occlusion (25 min) and 2-hour reperfusion, infarct size in anesthetized rats; assay type: in vivo, rat
# Experimental: Wistar rats were anesthetized with thiopentone sodium. The left anterior descending (LAD) coronary artery was occluded. After 25 minutes of occlusion, reperfusion was allowed for 2 hours. This animal model has been described previously. Zacharowski, et al., Br. J. Pharmacol. 128; 945-952 (1999).
# GLP-1 (1.5 μg/kg/min) was infused into anesthetized rats (n=10), commencing 10 minutes prior to reperfusion and continuing throughout the 2-hour reperfusion. Controls were sham operated with no occlusion (n=7), LAD occlusion+reperfusion+administration of saline (n=12), and LAD occlusion and reperfusion with a buffer of 10 mM sodium acetate, 5.05% D-mannitol, pH 4.5, (“vehicle”) at 1.5 mL/kg/hour (n=10).
# Following reperfusion, the coronary artery was reoccluded, and Evans Blue dye (4 ml, 2% w/v) was injected into the left ventricle of the heart via a right carotid artery cannula. Evans Blue stains perfused myocardium, while occluded vascular bed remains uncolored. Animals were then killed by anesthetic overdose and the hearts were removed for examination. Hearts were sectioned and the right ventricular wall was removed. The area at risk (pink) was separated from the non-ischemic tissue (blue). The area at risk (pink) was then cut into smaller pieces and stained with p-nitroblue tetrazolium (NBT; 0.5 mg/ml) for 20 min. at 37° C. In the presence of intact dehydrogenase enzyme systems (viable myocardium), NBT forms a dark blue compound. Areas of necrosis lack the enzyme and remain unstained. Tissue was separated according to staining and weighed to determine infarct size as a percentage of the area at risk.
# dogs = assay: 10-minute left circumflex coronary (LCx) occlusion/reperfusion, myocardial stunning in dogs; assay type: in vivo, dog; details: GLP-1 infusion for 24 hours beginning 1 minute prior to reperfusion
# Experimental: Two dogs were studied at baseline before, during, and for 6 hours after a 10-minute complete left circumflex coronary (LCx) occlusion. Each dog underwent occlusion/reperfusion in the presence and absence of GLP-1 infusion for 24 hours, beginning 1 minute prior to reperfusion. GLP-1 infusion enhanced the recovery of ventricular wall regional dysfunction following 10 minutes of coronary artery occlusion.
substance,measurement,setting,value
GLP-1,infarct size as a percentage of the area at risk,"Wistar rats; GLP-1 1.5 μg/kg/min infusion from 10 minutes prior to reperfusion and throughout 2-hour reperfusion, n=10, vehicle 46±4%, saline 50±3%",31±4%
same,reduction in infarct size compared with the vehicle group,"Wistar rats; GLP-1 1.5 μg/kg/min infusion, statistically significant (p<0.05)",approximately 33%
same,reduction of infarct size (summary statement),"Wistar rats; GLP-1 during last 10 min. of 25 min. ischemia and throughout 2-hour reperfusion, rats",30%
same,hemodynamics,"Wistar rats; rats, GLP-1 during last 10 min. of ischemia and throughout 2-hour reperfusion",significantly improved
same,stunning period during reperfusion after subcritical ischemia,dogs; dogs,significantly reduced; also recorded: reduced stunning
same,recovery of ventricular wall regional dysfunction following 10 minutes of coronary artery occlusion,dogs; two dogs,enhanced
